Source: patent US6605619B1, “Nitroxides as protectors against oxidatives stress” (The United States of America as represented by the …, priority 1992, dated 2003)
Marks after values point to notes of the source that are not given here.

How the values were obtained:
[1] = EPR signal of nitroxides exposed to O2 flux formed by HX/XO (spin-loss); assay type: biochemical; conditions: % from total R′RNO + R′RNOH after exposure to 5 mM HX + 0.03 U/ml XO in air-saturated PBS pH 7.2
Method: For EPR experiments, samples (0.05-0.1 ml) either of solutions of chemicals or cell suspensions were drawn by a syringe into a gas-permeable teflon capillary of 0.8 mm inner diameter, 0.05 mm wall thickness (Zeus Industrial Products, Inc. Raritan, N.J.). Each capillary was folded twice, inserted into a narrow quartz tube which was open at both ends (2.5 mm ID), and then placed horizontally into the EPR cavity. During the experiments, gases of desired compositions were blown around the sample without having to disturb the alignment of the tube within the EPR cavity. EPR spectra were recorded in a Varian E4 (or E9) X-band spectrometer, with field set at 3357 G, modulation frequency of 100 KHz, modulation amplitude of 1 G and non-saturating microwave power. The EPR spectrometer was interfaced to an IBM-PC through an analog-to-digital converter and a data translation hardware (DT2801) and the spectra were digitized using commercial acquisition software, enabling subtraction of background signals. To study the kinetics of the spin-loss, the spectra were deliberately overmodulated, and the magnetic field was kept constant while the intensity of the EPR signal was followed.

[2] = SOD-inhibitable ferricytochrome c reduction assay, rate constants of reaction with O2 (SOD-like activity); assay type: biochemical; conditions: low ionic strength (10 mM HEPES), pH 7.0, 22° C.
Text: As a further check, the reaction of representatives of both 5- and 6-membered cyclic nitroxides with O2 was studied. The SOD-inhibitable ferricytochrome c reduction assay (Fridovich, Handbook of Methods for Oxygen Radical Research, 213-215, 1985) was used to determine rate constants of reaction with O2. […] The reaction was started by adding 0.01 U/ml XO and the rate of ferricytochrome c reduction, in the absence (V) and in the presence (v) of various nitroxides, was spectrophotometrically followed at 550 nm. Both reference and sample cuvettes contained all the reagents, with the reference cuvette containing 100 units/ml SOD, thereby eliminating spurious reactions from interfering with the determination of rate constants. Data were analyzed by plotting V/v as a function of [nitroxide] and k1 was calculated, knowing kCytC+superoxide, according to:
(V/v)−1=k1x[nitroxide]/kCytC+superoxidex[Cyt−c^III].

[3] = tested on: Chinese hamster V79 cells; experiment: Protection of cells exposed to H2O2 under hypoxic conditions; assay type: cell-based; conditions: 600 μM H2O2, 1 h, 37° C.
Method: Some studies required exposure to H2O2 under hypoxic conditions. For these studies, cells dispersed in 1.8 ml of medium were plated into specially designed glass flasks (Russo et al, Radiat. Res., 103, 232-239, 1985). The flasks were sealed with soft rubber stoppers, and 19-gauge needles were pushed through to act as entrance and exit ports for a humidified gas mixture of 95% nitrogen/5% CO2 (Matheson Gas Products). […] Stoppered flasks were connected in series and mounted on a reciprocating platform and gassed at 37° C. for 45 min. […] After 45 min of gassing, the hypoxic H2O2 solution was added to the cell monolayer culture. The cells were exposed to H2O2 for 1 h under hypoxic conditions. N2 gas flow was maintained during the H2O2 exposure. In parallel flasks, DF and CHD were added as described above, and were present during the entire gassing procedure. Following treatment, cell survival was assessed as described above.

[4] = H2O2 accumulation and decay in tissue culture exposed to HX/XO (H2O2 selective electrode); assay type: cell-based, Chinese hamster; conditions: presence of CHD
Method: Chinese hamster V79 cells were plated in full medium and incubated at 37° C. with 5 mM HX+0.04 U/ml XO, sampled at various time points, and assayed for H2O2 using a hydrogen peroxide selective electrode.
Hydrogen peroxide was assayed using a YSI Model 27 Industrial Analyzer (Yellow Springs Instruments) equipped with a selective electrode for H2O2. For analysis of cellular preparations, the cells, except during the brief time required for removal of aliquots for analysis, were kept in T25 culture flasks maintained at 37° C. in complete medium (pH 7.2). Aliquots of 25 μl were sampled from the reaction or cell preparation system at varying time points and injected into the analyzer. [H2O2] was determined after calibrating the instrument with known concentrations of H2O2. The concentrations of standard H2O2 solutions were calibrated using iodometric assay (Hochanadel, J. Phys. Chem., 56, 587-594, 1952).

[5] = tested on: DNA-Fe(II); experiment: Reaction of nitroxide with DNA-Fe(II), EPR spin-loss and OD353nm; assay type: biochemical, Salmon; conditions: hypoxic mixing, 0.1 mg/ml Salmon DNA, 50 mM MOPS pH 7.0, 22° C.
Method: All solutions always contained 0.1 mg/ml Salmon DNA. The appearance of DNA-Fe(III) was spectrophotometrically monitored at 353 nm, whereas the spin-loss of CHD was monitored by following its EPR signal. To study the time-dependence of ΔOD353nm (∘), 1 mM CHD was mixed with 0.1 mM Fe(II). To follow the spin-loss of CHD (□), 1 mM Fe(II) was mixed with 0.1 mM CHD.
It was also questioned whether the aerobic and hypoxic protection by CHD to H2O2 exposure was a result of CHD directly accepting electrons from ferrous ions, thereby preventing generation of .OH. Because cellular iron is chelated, the possible reaction of nitroxide with chelated iron(II) was examined by repeating the experiment in the presence of DNA. To study the possibility of nitroxide-induced oxidation of transition metals, CHD was hypoxically mixed with iron(II) in the presence of 0.1 mg/ml Salmon DNA. Consequently, DNA-Fe(III) was formed and the nitroxide EPR signal disappeared. The reaction kinetics were investigated by maintaining either CHD or Fe(II) in excess while the absorbance due to DNA-Fe(III) and the nitroxide spin-loss were monitored respectively (FIG. 6). Both the decay of the EPR signal and the appearance of the OD353nm obeyed pseudo 1st order kinetics from which the 2nd order reaction rate constant was calculated as 44 M^−1s^−1 or 33 M^−1s^−1 using the data from EPR or optical absorption, respectively.

[6] = tested on: V79 cells; experiment: Nitroxide intracellular localization by EPR with trioxalato-chromiate; assay type: cell-based, Chinese hamster
Method: The EPR signal intensity of the total concentration of CHD (intra- and extra-cellular) in 6.4×10^7 V79 cells/ml traces (A and C) and in the presence of 110 mM trioxalato-chromiate (CrOx) (traces B and D).
For EPR experiments, samples (0.05-0.1 ml) either of solutions of chemicals or cell suspensions were drawn by a syringe into a gas-permeable teflon capillary of 0.8 mm inner diameter, 0.05 mm wall thickness (Zeus Industrial Products, Inc. Raritan, N.J.). Each capillary was folded twice, inserted into a narrow quartz tube which was open at both ends (2.5 mm ID), and then placed horizontally into the EPR cavity. During the experiments, gases of desired compositions were blown around the sample without having to disturb the alignment of the tube within the EPR cavity. EPR spectra were recorded in a Varian E4 (or E9) X-band spectrometer, with field set at 3357 G, modulation frequency of 100 KHz, modulation amplitude of 1 G and non-saturating microwave power. The EPR spectrometer was interfaced to an IBM-PC through an analog-to-digital converter and a data translation hardware (DT2801) and the spectra were digitized using commercial acquisition software, enabling subtraction of background signals. To study the kinetics of the spin-loss, the spectra were deliberately overmodulated, and the magnetic field was kept constant while the intensity of the EPR signal was followed. […]

CC1(C)CN([O])C2(CCCCC2)O1 [CHD, 2-spirocyclohexane-5,5-dimethyl-3-oxazolidinoxyl]
Steady state EPR signal (%) [1]: 30% | kR′RNO + O2 [2]: 3.5 × 10^3 M − 1^s − 1 | protection against H2O2 cytotoxicity under hypoxic conditions [3]: protects | pattern of H2O2 generation by HX/XO [4]: did not significantly alter | 2nd order reaction rate constant with DNA-Fe(II), from EPR data ([5]; EPR spin-loss): 44 M⁻¹ s⁻¹ | 2nd order reaction rate constant with DNA-Fe(II), from optical absorption ([5]; OD353nm): 33 M⁻¹ s⁻¹ | intracellular location / freedom of motion [6]: located primarily in a membranous compartment
